Results on six compounds are retold here after ChEMBL document CHEMBL5365393, “Comprehensive coverage on anti-mycobacterial endeavour reported during 2022” (Eur J Med Chem, 2023).

Assay type in all cases: functional
Assay [1] relates to Mycobacterium tuberculosis. Description: Antibacterial activity against isoniazid and rifampicin-resistant Mycobacterium tuberculosis T113/09 assessed as inhibition of bacterial growth.
Assay [2] relates to Mycobacterium tuberculosis. Description: Antibacterial activity against multidrug-resistant Mycobacterium tuberculosis clinical isolate H37Rv assessed as inhibition of bacterial growth.
For assay [3], the system named is Mycobacterium tuberculosis. Put plainly: Antibacterial activity against extensively drug-resistant Mycobacterium tuberculosis clinical isolate H37Rv assessed as inhibition of bacterial growth.
Assay [4] relates to Mycobacterium tuberculosis. Put plainly: Antibacterial activity against multidrug-resistant Mycobacterium tuberculosis clinical isolate CDCT-16 assessed as inhibition of bacterial growth.
The test system of assay [5] is Mycobacterium tuberculosis. Description: Antibacterial activity against multidrug-resistant Mycobacterium tuberculosis clinical isolate CDCT-27 assessed as inhibition of bacterial growth.
The test system of assay [6] is Mycobacterium tuberculosis. Put plainly: Antibacterial activity against multidrug-resistant Mycobacterium tuberculosis assessed as inhibition of bacterial growth by microplate alamar blue assay. (The colour change of resazurin is a common sign of viable cells or microbes.)
Assay [7] has as its system Mycobacterium tuberculosis. Put plainly: Antibacterial activity against extensively drug-resistant Mycobacterium tuberculosis assessed as inhibition of bacterial growth by microplate alamar blue assay.
Assay [8] deals with Mycobacterium tuberculosis. Put plainly: Antibacterial activity against multidrug-resistant Mycobacterium tuberculosis assessed as inhibition of bacterial growth.
The subject of assay [9] is Mycobacterium tuberculosis. Put plainly: Antibacterial activity against extensively drug-resistant Mycobacterium tuberculosis assessed as inhibition of bacterial growth.
For assay [10], the system named is Mycobacterium tuberculosis. Description: Antibacterial activity against ethambutol-resistant Mycobacterium tuberculosis H37Rv assessed as inhibition of bacterial growth.
In assay [11] the test system is Mycobacterium tuberculosis. Put plainly: Antibacterial activity against streptomycin-resistant Mycobacterium tuberculosis H37Rv assessed as inhibition of bacterial growth.
For assay [12], the system named is Mycobacterium tuberculosis. Description: Antibacterial activity against rifampicin-resistant Mycobacterium tuberculosis H37Rv assessed as inhibition of bacterial growth.
The test system of assay [13] is Mycobacterium tuberculosis. Put plainly: Antibacterial activity against isoniazid-resistant Mycobacterium tuberculosis H37Rv assessed as inhibition of bacterial growth.

Each structure is given as a SMILES string. ≈ marks a conversion by molar mass, not a printed value.

Consider `CCCCCCc1ccc(-c2cn(CC(=O)Cn3ccnc3[N+](=O)[O-])nn2)cc1`, for which the MIC in assay [1] is 16.3 µM (≈ 6.46 µg/mL).

With `CC(C)/N=c1\cc2n(-c3ccccc3)c3ccccc3nc-2cc1Nc1ccc(N2CCN(C)CC2)c(F)c1`, the minimum inhibitory concentration (MIC) in assay [2] and in assay [3] was 0.08 µg/mL (≈ 0.154 µM) throughout.

As to `Cc1nc2cc(C(F)(F)F)ccc2n1-c1ncc(C(F)(F)F)s1`, the minimal inhibitory concentration (MIC) in [4] stood at 4.16 µM (≈ 1.46 µg/mL); in assay [5], 3.68 µM (≈ 1.29 µg/mL).

In the case of `O=C(N/N=C1\C(=O)N(Cc2ccccc2)c2ccccc21)c1cnc2cc(Cl)ccc2c1O`, the MIC in assay [6] amounted to 0.24 µg/mL (≈ 0.525 µM); in assay [7] it was 1.95 µg/mL (≈ 4.27 µM).

Take `COc1ccc(-c2nn(-c3ccc([N+](=O)[O-])cc3[N+](=O)[O-])c(N)c2C#N)cc1Oc1cccc(Br)c1C#N`: the minimum inhibitory concentration (MIC) in assay [8] was found to be 1.95 µg/mL (≈ 3.38 µM); in assay [9], 3.9 µg/mL (≈ 6.77 µM).

With `COC(=O)c1cc(-c2ccc(OC)c(NC(=O)c3cc(-c4cccc(Cl)c4)nc4ccccc34)c2)on1`, the minimal inhibitory concentration (MIC) in assay [10] came out at 0.25 µg/mL (≈ 0.486 µM); in [11], 0.25 µg/mL (≈ 0.486 µM); in [12] it was 0.25 µg/mL (≈ 0.486 µM); in assay [13], 0.5 µg/mL (≈ 0.973 µM).

In general, MIC refers to the lowest concentration found to suppress growth.
